According to the supplement of paper PMC4862054:

Tests used:
Assay in all cases: drug sensitivity score (DSS), CellTox Green (DSS (AUC-based score)); higher = stronger drug effect (viability inhibition or cytotoxicity); extreme values may be limits of the assay
Details in all cases: incubation time: 72 h
CAL-51 = test system: CAL-51
Procedure, shortened: (§1)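 Plates with 384 wells held compound at 5 concentrations in 10-fold steps over a 10,000-fold range specific to each compound. Breast cancer cell lines were added in 20 µl suspension and incubated 72 h, then read for CellTox Green and CellTiter-Glo signals, with each plate normalised to 0.1 % DMSO and a positive kill control. The drug sensitivity score is based on the area under the fitted dose-response curve.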

BT-474 = test system: BT-474
Procedure, shortened: as §1

BT-549 = test system: BT-549
Procedure, shortened: as §1

HCC1937 = test system: HCC1937
Procedure, shortened: as §1

DU-4475 = test system: DU-4475
Procedure, shortened: as §1

HCC1143 = test system: HCC1143
Procedure, shortened: as §1

MCF-10A = test system: MCF-10A
Procedure, shortened: as §1

CAL-148 = test system: CAL-148
Procedure, shortened: as §1

MFM-223 = test system: MFM-223
Procedure, shortened: as §1

HCC1599 = test system: HCC1599
Procedure, shortened: as §1

Row | SMILES | drug sensitivity score (CAL-51) | drug sensitivity score (BT-474) | drug sensitivity score (BT-549) | drug sensitivity score (HCC1937) | drug sensitivity score (DU-4475) | drug sensitivity score (HCC1143) | drug sensitivity score (MCF-10A) | drug sensitivity score (CAL-148) | drug sensitivity score (MFM-223) | drug sensitivity score (HCC1599)
1 | COc1cc(Nc2c(C#N)cnc3cc(OCCCN4CCN(C)CC4)c(OC)cc23)c(Cl)cc1Cl [Bosutinib] | 5.81 | 5.18 | 1.47 | 1.87 | 0 | 0 | 7.8 | 2.51 | 0 | 0.637
2 | CC1(C)CCC(c2ccc(Cl)cc2)=C(CN2CCN(c3ccc(C(=O)NS(=O)(=O)c4ccc(N[C@H](CCN5CCOCC5)CSc5ccccc5)c(S(=O)(=O)C(F)(F)F)c4)cc3)CC2)C1 [Navitoclax] | 8.56 | 2.28 | 0 | 0 | 0 | 0 |  | 4.49 | 1.23 | 0
3 | CN(Cc1cnc2nc(N)nc(N)c2n1)c1ccc(C(=O)N[C@@H](CCC(=O)O)C(=O)O)cc1 [Methotrexate] | 0 | 0 | 0 | 0 | 0 | 1.72 | 0 | 0 | 0 | 0
4 | Cc1nc(C(=O)NCC(=O)O)c(O)c2ccc(Oc3ccccc3)cc12 [FG-4592] | 0 | 0 | 0 | 0 | 0 | 0 | 0 | 0 | 0 | 0
5 | CC(C)(C)NC(=O)[C@H]1CC[C@H]2[C@@H]3CC[C@H]4NC(=O)C=C[C@]4(C)[C@H]3CC[C@]12C [Finasteride] | 0 | 0 | 0 | 0 | 0 | 0 | 0 | 0 | 3.14 | 0
6 | Cn1cc(C2=C(c3cn(C4CCN(Cc5ccccn5)CC4)c4ccccc34)C(=O)NC2=O)c2ccccc21 [Enzastaurin] | 0 | 0 | 0 | 0 | 0 | 0 | 0 | 0 | 0 | 0
7 | Cc1cn(-c2cc(NC(=O)c3ccc(C)c(Nc4nccc(-c5cccnc5)n4)c3)cc(C(F)(F)F)c2)cn1 [Nilotinib] | 0 | 0 | 1.71 | 0 | 0 | 0 | 0 | 0 | 0 | 0
8 | O=C(O)CNC(=O)c1c(O)c2ccccc2n(Cc2ccccc2)c1=O [IOX-2] | 0 | 0 | 2.91 | 0 | 0 | 0 | 0 | 0 | 0 | 0
9 | CNC(=O)c1ccccc1Sc1ccc2c(/C=C/c3ccccn3)n[nH]c2c1 [Axitinib] | 6.53 | 0 | 0 | 0 | 0 | 0 | 0 | 2.44 | 0 | 0
10 | CC(O)(CS(=O)(=O)c1ccc(F)cc1)C(=O)Nc1ccc(C#N)c(C(F)(F)F)c1 (stereo not drawn) [Bicalutamide] | 0 | 0 | 0 | 0 | 0 | 0 | 0 | 0 | 0 | 0
11 | Nc1ccn([C@@H]2O[C@H](CO)[C@@H](O)C2(F)F)c(=O)n1 [Gemcitabine] | 13.4 | 0 | 0 | 0 | 0 | 0 | 0 | 11.2 | 0 | 0
12 | CC(C)C[C@H](NC(=O)[C@@H](COC(C)(C)C)NC(=O)[C@H](Cc1ccc(O)cc1)NC(=O)[C@H](CO)NC(=O)[C@H](Cc1c[nH]c2ccccc12)NC(=O)[C@H](Cc1cnc[nH]1)NC(=O)[C@@H]1CCC(=O)N1)C(=O)N[C@@H](CCCNC(=N)N)C(=O)N1CCC[C@H]1C(=O)NNC(N)=O [Goserelin] | 0 | 0.105 | 0 | 0 | 0 | 0 | 0 | 0 |  | 0
13 | COc1ccc(S(=O)(=O)Nc2cccnc2Nc2ccc(O)cc2)cc1 [ABT-751] | 1.79 | 0 | 10.2 | 0 | 0 | 0 | 4 | 0 | 4.05 | 0
14 | CCNC(=O)CCC/C=C\C[C@@H]1[C@@H](/C=C/[C@@H](O)CCc2ccccc2)[C@H](O)C[C@@H]1O [Bimatoprost] | 0 | 0 | 0 | 0 | 0 | 0 | 0 | 0 | 0 | 0
15 | C/C(=C\c1csc(C)n1)[C@@H]1C[C@@H]2O[C@]2(C)CCC[C@H](C)[C@H](O)[C@@H](C)C(=O)C(C)(C)[C@@H](O)CC(=O)N1 [Ixabepilone] | 11.7 | 0 | 5.33 | 0 | 0 | 0 | 0 | 0 | 0 | 0
16 | CC(C)n1cnc2c(NCCc3ccc(O)cc3)nc(-c3csc4ccccc34)nc21 [StemRegenin 1] | 0 | 1.03 | 0 | 0 | 0 | 0 | 0 | 0 | 5.31 | 0
